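Dose response: 5 concentrations. Exposure: 48 h. Format: 96-well plates. Endpoint: linear interpolation; highest concentration if not reached. Here, GI50 denotes the concentration required for 50% inhibition of growth. The concentration for full growth arrest is given as TGI.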
Tests used:
Experiment in all cases: NCI-60 cell line screen, 48 h
MALME-3M melanoma = test system: MALME-3M melanoma
LOX IMVI melanoma = test system: LOX IMVI melanoma
HCT-116 colon = test system: HCT-116 colon
SW-620 colon = test system: SW-620 colon
HL-60(TB) leukemia = test system: HL-60(TB) leukemia
HS 578T breast = test system: HS 578T breast
SK-MEL-2 melanoma = test system: SK-MEL-2 melanoma
OVCAR-3 ovarian = test system: OVCAR-3 ovarian
MOLT-4 leukemia = test system: MOLT-4 leukemia
EKVX NSCLC = test system: EKVX NSCLC
IGROV1 ovarian = test system: IGROV1 ovarian
CCRF-CEM leukemia = test system: CCRF-CEM leukemia
M14 melanoma = test system: M14 melanoma
T-47D breast = test system: T-47D breast
NCI-H226 lung = test system: NCI-H226 lung
UACC-62 melanoma = test system: UACC-62 melanoma
SNB-75 CNS = test system: SNB-75 CNS
U251 CNS = test system: U251 CNS
HOP-92 NSCLC = test system: HOP-92 NSCLC
SK-OV-3 ovarian = test system: SK-OV-3 ovarian
NCI-H460 lung = test system: NCI-H460 lung
UACC-257 melanoma = test system: UACC-257 melanoma
TK-10 renal = test system: TK-10 renal
ACHN renal = test system: ACHN renal
OVCAR-5 ovarian = test system: OVCAR-5 ovarian
UO-31 renal = test system: UO-31 renal
OVCAR-8 ovarian = test system: OVCAR-8 ovarian
PC-3 prostate = test system: PC-3 prostate
SF-295 CNS = test system: SF-295 CNS
BT-549 breast = test system: BT-549 breast
SK-MEL-28 melanoma = test system: SK-MEL-28 melanoma
HCT-15 colon = test system: HCT-15 colon
NCI-H522 lung = test system: NCI-H522 lung
COLO 205 colon = test system: COLO 205 colon
KM12 colon = test system: KM12 colon
SN12C renal = test system: SN12C renal
A549 NSCLC = test system: A549 NSCLC
HCC-2998 colon = test system: HCC-2998 colon
HOP-62 NSCLC = test system: HOP-62 NSCLC
K-562 leukemia = test system: K-562 leukemia
A498 renal = test system: A498 renal
NCI/ADR-RES ovarian = test system: NCI/ADR-RES ovarian
SK-MEL-5 melanoma = test system: SK-MEL-5 melanoma
SR leukemia = test system: SR leukemia
MCF7 breast = test system: MCF7 breast
CAKI-1 renal = test system: CAKI-1 renal
MDA-MB-435 = test system: MDA-MB-435
SNB-19 CNS = test system: SNB-19 CNS
MDA-MB-231 breast = test system: MDA-MB-231 breast
NCI-H23 lung = test system: NCI-H23 lung
786-0 renal = test system: 786-0 renal
RPMI-8226 leukemia = test system: RPMI-8226 leukemia
DU-145 prostate = test system: DU-145 prostate
OVCAR-4 ovarian = test system: OVCAR-4 ovarian
SF-539 CNS = test system: SF-539 CNS
HT29 colon = test system: HT29 colon
SF-268 CNS = test system: SF-268 CNS

SMILES: CCN(CC)c1ccc2c(c1)OC(N)=C(C#N)C2c1cc(OC)c2c(c1)OCO2 (stereo not drawn)
- GI50 (MALME-3M melanoma): 445 nM
- TGI (MALME-3M melanoma): 5590 nM
- GI50 (LOX IMVI melanoma): 57.7 nM
- TGI (LOX IMVI melanoma): 3860 nM
- GI50 (HCT-116 colon): 32.4 nM
- TGI (HCT-116 colon): 1780 nM
- GI50 (SW-620 colon): 35.4 nM
- TGI (SW-620 colon): > 48900 nM
- GI50 (HL-60(TB) leukemia): 26.9 nM
- TGI (HL-60(TB) leukemia): 141 nM
- GI50 (HS 578T breast): 16.7 nM
- TGI (HS 578T breast): 409 nM
- GI50 (SK-MEL-2 melanoma): 47.6 nM
- TGI (SK-MEL-2 melanoma): 13800 nM
- GI50 (OVCAR-3 ovarian): 16.8 nM
- TGI (OVCAR-3 ovarian): 46.6 nM
- GI50 (MOLT-4 leukemia): 49.7 nM
- TGI (MOLT-4 leukemia): 3550 nM
- GI50 (EKVX NSCLC): 76.7 nM
- TGI (EKVX NSCLC): > 100000 nM
- GI50 (IGROV1 ovarian): 104 nM
- TGI (IGROV1 ovarian): 33700 nM
- GI50 (CCRF-CEM leukemia): 30.8 nM
- TGI (CCRF-CEM leukemia): 1710 nM
- GI50 (M14 melanoma): 13.8 nM
- TGI (M14 melanoma): 45.9 nM
- GI50 (T-47D breast): 3320 nM
- TGI (T-47D breast): 22000 nM
- GI50 (NCI-H226 lung): 47 nM
- TGI (NCI-H226 lung): 942 nM
- GI50 (UACC-62 melanoma): < 18.4 nM
- TGI (UACC-62 melanoma): 13500 nM
- GI50 (SNB-75 CNS): 20 nM
- TGI (SNB-75 CNS): 42500 nM
- GI50 (U251 CNS): 40.8 nM
- TGI (U251 CNS): 2380 nM
- GI50 (HOP-92 NSCLC): 107 nM
- TGI (HOP-92 NSCLC): 3580 nM
- GI50 (SK-OV-3 ovarian): 35 nM
- TGI (SK-OV-3 ovarian): 12700 nM
- GI50 (NCI-H460 lung): 33.6 nM
- TGI (NCI-H460 lung): 503 nM
- GI50 (UACC-257 melanoma): 312 nM
- TGI (UACC-257 melanoma): 14500 nM
- GI50 (TK-10 renal): 316 nM
- TGI (TK-10 renal): 25500 nM
- GI50 (ACHN renal): 101 nM
- TGI (ACHN renal): 6700 nM
- GI50 (OVCAR-5 ovarian): 63.9 nM
- TGI (OVCAR-5 ovarian): 30100 nM
- GI50 (UO-31 renal): 403 nM
- TGI (UO-31 renal): > 43300 nM
- GI50 (OVCAR-8 ovarian): 39.5 nM
- TGI (OVCAR-8 ovarian): 3530 nM
- GI50 (PC-3 prostate): 30.9 nM
- TGI (PC-3 prostate): > 100000 nM
- GI50 (SF-295 CNS): < 15.7 nM
- TGI (SF-295 CNS): 2680 nM
- GI50 (BT-549 breast): 66.1 nM
- TGI (BT-549 breast): 455 nM
- GI50 (SK-MEL-28 melanoma): 34.5 nM
- TGI (SK-MEL-28 melanoma): 22700 nM
- GI50 (HCT-15 colon): 34.9 nM
- TGI (HCT-15 colon): 3930 nM
- TGI (NCI-H522 lung): 47.4 nM
- GI50 (COLO 205 colon): 37.7 nM
- TGI (COLO 205 colon): 424 nM
- GI50 (KM12 colon): 32.5 nM
- TGI (KM12 colon): 603 nM
- GI50 (SN12C renal): 53.7 nM
- TGI (SN12C renal): 6090 nM
- GI50 (A549 NSCLC): 32.2 nM
- TGI (A549 NSCLC): > 100000 nM
- GI50 (HCC-2998 colon): 30.2 nM
- TGI (HCC-2998 colon): 1350 nM
- GI50 (HOP-62 NSCLC): 60.2 nM
- TGI (HOP-62 NSCLC): 20300 nM
- GI50 (K-562 leukemia): < 17.5 nM
- TGI (K-562 leukemia): 4320 nM
- GI50 (A498 renal): 20.1 nM
- TGI (A498 renal): 80.9 nM
- GI50 (NCI/ADR-RES ovarian): < 14.2 nM
- TGI (NCI/ADR-RES ovarian): 67.9 nM
- GI50 (SK-MEL-5 melanoma): 28.7 nM
- TGI (SK-MEL-5 melanoma): 597 nM
- GI50 (SR leukemia): < 17 nM
- TGI (SR leukemia): 1980 nM
- GI50 (MCF7 breast): 29.4 nM
- TGI (MCF7 breast): 11500 nM
- GI50 (CAKI-1 renal): 108 nM
- TGI (CAKI-1 renal): 59100 nM
- GI50 (MDA-MB-435): < 10.8 nM
- TGI (MDA-MB-435): 27.6 nM
- GI50 (SNB-19 CNS): 41.8 nM
- TGI (SNB-19 CNS): 51000 nM
- GI50 (MDA-MB-231 breast): 55.7 nM
- TGI (MDA-MB-231 breast): 2730 nM
- GI50 (NCI-H23 lung): 35.9 nM
- TGI (NCI-H23 lung): 14500 nM
- GI50 (786-0 renal): 43.8 nM
- TGI (786-0 renal): 3160 nM
- GI50 (RPMI-8226 leukemia): 47.4 nM
- TGI (RPMI-8226 leukemia): 2510 nM
- GI50 (DU-145 prostate): 35.8 nM
- TGI (DU-145 prostate): 428 nM
- GI50 (OVCAR-4 ovarian): 75.4 nM
- TGI (OVCAR-4 ovarian): > 48600 nM
- GI50 (SF-539 CNS): 27.1 nM
- TGI (SF-539 CNS): 80.6 nM
- GI50 (HT29 colon): 31.7 nM
- TGI (HT29 colon): 309 nM
- GI50 (SF-268 CNS): 60 nM
- TGI (SF-268 CNS): 3030 nM
